Source: publication PMC7076358, “Absorption and Intestinal Metabolic Profile of Oleocanthal in Rats” (Pharmaceutics, 2020)
Read-outs that look alike come from different tables or passages of the source. One block for each molecule: values may come before it.

Tests used:
[1] = parameters: method as in PMID 15760043, PMID 9068926; conditions: cited from earlier work
[2] = source not stated; cited from earlier work
[3] = in situ single-pass intestinal perfusion with simultaneous luminal perfusate and mesenteric blood sampling; assay type: in vivo, Sprague–Dawley rats
Protocol: LEV was assayed at 3 mg/mL, according to its high dose strength, in 250 mL TM.
Single-pass intestinal perfusion was performed in anesthetized rats according to the method described by Brouwers et al. [15], with simultaneous sampling from the luminal perfusate and mesenteric blood.
Anaesthesia was induced by intraperitoneal injection of pentobarbital sodium (60 mg/kg BW). The rats were then placed on a homeothermic blanket to maintain the body temperature at 37 °C. First, under general anaesthesia, the left jugular vein was cannulated with a heparinised (50 IU/mL) 0.5 × 0.9 mm/20 G catheter (Cavafix® MT, Braun Medical S.A., Barcelona, Spain) for infusion of donor blood. Second, a midline abdominal incision was made to isolate approximately 10 cm of the ileum using the ileocecal junction as a point of reference. Two glass cannulas (o.d. 4 mm, i.d. 3 mm, Duran®, Vidrafoc, Barcelona, Spain) were inserted at the proximal and distal ends of the isolated segment. The segment was rinsed by injection TM to remove the content until the solution came out clear. Next, the inlet cannula was connected to polyethylene tubing (i.d. 3 mm), which aspirated the tested solution (OLC or LEV) using a peristaltic pump (Minipuls3, M312 model, Gilson, Le Bel, France). Finally, the mesenteric vein draining blood from the intestinal segment was cannulated by inserting approximately 1 cm of a catheter (BD Insyte-W 24GA 0.7 × 19 mm, Becton Dickinson, Sangüesa S.A., Cornellà de Llobregat, Spain). The cannula was secured with a knot and connected to a silicone tube (i.d. 0.64 mm; o.d. 1.19 mm, Freudenberg Medical Europe, VWR International Eurolab S.L., Llinars del Vallés, Spain) that allowed blood to flow into the heparinised tubes. Care was taken to handle the small intestine gently to maintain normal blood supply. […]
The experiments were carried out in a laboratory room with infrared light to avoid oxidation of OLC. […] At the end of the experiment, the animal was euthanised by injection of air into the jugular, and the length of the intestinal segment was measured. […]

Caco-2 cell monolayers = test system: Caco-2 cell monolayers; parameters: method as in PMID 10745093; conditions: differentiated Caco-2 cell monolayers; cited from earlier work
[4] = parameters: method as in PMID 11110859; conditions: rat intestine perfused, cited from earlier work

SMILES: C[C@H]1COc2c(N3CCN(C)CC3)c(F)cc3c(=O)c(C(=O)O)cn1c23 [LEV, levofloxacin]
oral bioavailability [1]: ~100%

Peff at 60 min ([3]; Sprague-Dawley, pH 7, rat ileum, disappearance from lumen, OLC 0.1 mg/mL, LEV 3 mg/mL, flow 1 mL/min, mean ± SD, n = 4, normalised to 10-cm segment, read-out: Peff (effective permeability coefficient)): 22.3 ± 31.6 ×10⁻⁶ cm/s | Papp at 60 min ([3]; Sprague-Dawley, rat, pH 7, rat ileum, appearance in mesenteric blood, OLC 0.1 mg/mL, LEV 3 mg/mL, mean ± SD, n = 4, normalised to 10-cm segment, read-out: Papp (apparent permeability coefficient)): 4.12 ± 2.33 ×10⁻⁶ cm/s | absorption ([3]; rat in situ intestinal perfusion, stated in conclusions): 16%
SMILES: C/C=C(/C=O)[C@@H](CC=O)CC(=O)OCCc1ccc(O)cc1 [OLC, oleocanthal]
logP [2]: 1.15

SMILES: OCCc1ccc(O)c(O)c1 [hydroxytyrosol]
permeability (Caco-2 cell monolayers): 12.4 ± 0.9 × 10^−6 cm/s

SMILES: C/C=C1/[C@H](O[C@@H]2O[C@H](CO)[C@@H](O)[C@H](O)[C@H]2O)OC=C(C(=O)OC)[C@H]1CC(=O)OCCc1ccc(O)c(O)c1 [oleuropein]
intestinal permeability coefficient ([4]; hypotonic conditions): 5.92 ×10⁻⁶ cm/s | intestinal permeability coefficient ([4]; iso-osmotic conditions): 1.47 ×10⁻⁶ cm/s
